Reference: publication PMC11480411, “Mucosal sugars delineate pyrazine vs pyrazinone autoinducer signaling in Klebsiella oxytoca” (Nature Communications, 2024)

Legend:
S. enterica Typhimurium = system: S. enterica Typhimurium; parameters: method as in PMID 36929450; conditions: 100 µM (supra-physiological); cited from earlier work
[1] = system: leup operon (leupeptin BGC) promoter in K. oxytoca ATCC 8724; experiment: GFP-based transcriptional reporter for the leup operon; assay type: cell-based, Klebsiella oxytoca; conditions: carbohydrate screen, M9 + casamino acid + 0.4% indicated sugar, 30 °C, 24 h
Description: We previously examined a panel of 84 clinical K. oxytoca isolates (including recently renamed Klebsiella michiganensis isolates) for the presence of either the leup operon or npsB, an NRPS of the tilimycin/tilivalline gene cluster. […] While the roles of tilivalline and tilimycin in hemorrhagic colitis are well studied[8],[9], the operon for leupeptin biosynthesis is “silent” in K. oxytoca under typical laboratory culture conditions (i.e., leupeptin production is undetectable). Therefore, our study commenced by exploring growth conditions required to trigger leupeptin biosynthesis in K. oxytoca. To achieve this, we generated a green fluorescent protein (GFP)-based reporter system to monitor leup transcription in K. oxytoca ATCC 8724 (recently renamed as Klebsiella michiganensis (ATCC 8724), Fig. 1a). We utilized λ-red recombineering techniques[38] to replace the first biosynthetic gene (leupA) of the leupeptin BGC with a GFP-spectinomycin resistance cassette. […] Consequently, conditions that elicit transcription of the leupeptin BGC can be monitored by GFP fluorescence intensity.
(§1) 5 mL of the leupeptin reporter strain was cultured aerobically in 10 g/L of LB (Becton Dickinson), yeast extract, GAM (HiMedia Laboratories), horse liver extract (HiMedia Laboratories), malt extract (VWR), meat extract (HiMedia Laboratories), YPD (Dot Scienticifc), brain heart infusion (Becton Dickinson), porcine mucin (Sigma-Aldrich, M1778), clostridial (Becton Dickinson), TSB (VWR), or casamino acid supplemented (5 g/L, VWR) M9 minimal salts (MP Biomedicals) at 30 °C for 24 h at 250 rpm. Cultures were lysed via sonication, centrifuged, and 150 µL of the supernatants were aliquoted into black well clear bottom 96 well plates. GFP fluorescence measurements were performed on a BioTek Synergy H1 plate reader with an excitation wavelength of 488 nm and an emission wavelength of 525 nm. For the carbohydrate screen, the leupeptin reporter strain was cultured in M9 minimal medium (MPbio) supplemented with casamino acid (5 g/L, VWR) and 0.4% indicated sugar aerobically at 30 °C for 24 h at 250 rpm.

[2] = system: wildtype K. oxytoca ATCC 8724; experiment: Leupeptin detection in culture extracts by HPLC-QTOF-MS; assay type: cell-based, Klebsiella oxytoca; conditions: added to cultivation medium
Protocol: as §1
For MS-based determination of leupeptin activation, wildtype K. oxytoca ATCC 8724 was cultured in 5 mL of M9 minimal medium supplemented with 5 g/L casamino acids and 0.4% Neu5Ac. […] To measure the area under the curves for specific molecular features, the exact monoprotonated [M + H]^+ mass was calculated and extracted ion chromatographs (EICs) with a 10-ppm error were constructed. […]

K. oxytoca = experiment: Culture growth (OD600) with sialic acid supplementation; assay type: cell-based, Klebsiella oxytoca; conditions: M9+CAS with sialic acid, peer review file, not added to the study
Protocol: as 2 times the recorded value). Importantly, all cultures in this experiment grew. […]
supplemented cultures. All cultures had reached stationary phase after 24 hours. While Neu5Gc cultures did grow slower than Neu5Ac cultures, the term suppression was incorrect. Therefore, we deleted text around Neu5Gc suppression and have changed line 123 to now read: […]
the SI. The following growth analysis was not added to the study.
2. Fig3 describes the role of PLP-enzyme for the production of pyrazines (features 5-9). From
Fig.3a it is clear that features 5 and 7 are different from 6, 8, and 9. Are there functional differences between these 2 groups of compounds in terms of siderophore production? […]
complementation of the pyr mutant with feature 7 could induce siderophore production (Fig4).
What about the features from the other group (6, 8, and 9)?
To address this comment, we performed RNA-seq analysis feeding compound 6 and looked at regulated genes/operons. Similar to compound 7, compound 6 supplementation increased the […]
a table listing specific genes, is now included in the SI. As such, lines 345-348 now read: […]
compound also differentially regulated the transcriptome (201 genes with Padj < 0.05; abs(log2FC) > 1) and enhanced the transcription of genes related to iron acquisition and iron metabolism (Supplemental Information).”
(also on this page, place not known: value ). PLP -enzyme -9). […]

| Structure (SMILES) | effect on iron acquisition pathways (S. enterica Typhimurium) | GFP fluorescence, GFP Strain + Media ([1]; leup GFP reporter strain) [RFU] | GFP fluorescence, WT + Media ([1]; wildtype K. oxytoca without reporter (background)) [RFU] | induction of leupeptin (1) production [2] | culture growth (K. oxytoca) |
| --- | --- | --- | --- | --- | --- |
| Cc1c[nH]c(=O)c(C)n1 [DPO, dimethylpyrazine-2-ol] | downregulated iron acquisition pathways |  |  |  |  |
| CC(=O)N[C@H]1[C@H]([C@H](O)[C@H](O)CO)OC(O)(C(=O)O)C[C@@H]1O (some centres unmarked) [Neu5Ac, N-acetylneuraminic acid] |  | 85763 | 8846 | robust detection of leupeptin | grew fastest |
